This note sets out measurements from patent publication US9656953B2, “Inhibition of cell proliferation” (University of South Florida, priority 2005, dated 2017).

SMILES strings stand for the structures. Entries after “also recorded” stand apart in the source; their conditions may differ.

A word on the IC50: it is the point on the concentration scale where inhibition reaches its midpoint. A low value points to higher potency. Usually inhibition stands for the relative decrease from the control value, in per cent.

Assay [1] addresses binding of Raf-1 to Rb in U937 cells (Homo sapiens, UniProt P04049+P06400). Put plainly: Immunoprecipitation-Western blot, serum stimulated U937 cells. Particulars: U937 cells serum stimulated 2 hours, 20 μM. In general terms: Immunoblotting shows a protein as a band on a membrane.
Experimental: Lysate preparation, pmmunoprecipitation, and pestern plotting. Lysates from cells treated with different agents were prepared by NP-40 lysis as described earlier (Wang 1998). […] Physical interaction between proteins in vivo was analyzed by immunoprecipitation—Western blot analyses with 200 μg of lysate with 1 μg of the indicated antibody as previously described (Wang 1998). Polyclonal E2F1 and Cyclin D were obtained from Santa Cruz Biotechnology. Monoclonal Rb and Raf-1 were supplied by BD Transduction laboratories (San Jose, Calif.). Polyclonal antibodies to phospho-Rb (807,811) phospho-MEK1/2, MEK1/2, phospho-Erk1/2 and ERK1/2 were supplied by Cell Signaling (Danvers, Mass.).
U937 cells were serum starved for 48 hours and subsequently serum stimulated for 2 hours in the presence or absence of 20 μM of the compounds.
Assay [2] deals with binding of Raf-1 to GST Rb beads (Homo sapiens, UniProt P04049+P06400). As to the kind of experiment: GST pull-down, U937 lysates. The settings on record: 20 μM, asynchronous U937 lysates, western blotting.
Experimental: First, 200 micrograms (μg) of U937 asynchronous lysates were pre-incubated with 10 μM of the indicated drugs or 1 μM of the Raf-1 peptide for 30 minutes at 4° C. Next, 200 μg of the U937 lysates were incubated with glutathione beads carrying an equal amount of the GST fusion proteins in 2001 of protein binding buffer (20 mM Tris [pH 7.5], 50 mM KCL, 0.5 mM EDTA, 1 mM dithiothreitol, 0.5% NP-40, 3 mg of bovine serum albumin/mL) at 4° C. for 2 h.
Asynchronous U937 lysates were incubated with GST-Rb beads in the presence or absence of the selected compounds or an 8 amino acid Raf-1 peptide and the binding of Raf-1 assessed by western blotting.
Assay [3] deals with T1, Rb:Raf-1 binding (Homo sapiens, UniProt P04049+P06400).
T1 construct: a glutathione S-transferase (GST) Raf-1 (1-149aa) overnight at 4° C; made in house
As to the kind of experiment: GST-Rb/GST-Raf-1 ELISA. The settings on record: for IC50: IC50 (nM), inhibition of the Rb:Raf-1 binding, concentration that inhibits the Rb:Raf-1 binding by 50%, triplicate; for inhibition at 20 µM: read-out: % Inhibition at 20 μM, inhibition of Rb:Raf-1 binding, compound at 20 μM. As to the method: In vitro library screening assays. Enzyme Linked ImmunoSorbent Assay (ELISA) 96-well plates were coated with 1 μg/mL of a glutathione S-transferase (GST) Raf-1 (1-149aa) overnight at 4° C. Subsequently the plates were blocked and GST Rb at 20 μg/mL was rotated at room temperature (RT) for 30 minutes in the presence or absence of the compounds at 20 micromolar (μM). GST-Rb +/− compounds were then added to the plate and incubated for 90 minutes (min) at 37° C. The amount of Rb bound to Raf-1 was detected by Rb polyclonal antibody (Santa Cruz Biotechnology, Santa Cruz, Calif.) 1:1000 incubated for 60 min at 37° C. Donkey-anti-rabbit-IgG-HRP (1:10,000) was added to the plate and incubated at 37° C. for 60 minutes. The color was developed with orthophenylenediamine (Sigma, St. Louis, Mo.) and the reaction was terminated with 3 molar (M) H2SO4. Absorbance was read at 490 nanometers (nm). To determine disruption of Rb to E2F1, Phb, or HDAC1 the above protocol was used with the exception of coating GST Rb on the ELISA plate and adding the drugs in the presence or absence of GST E2F1, Phb, or HDAC1. […] Prohibitin monoclonal antibody was used at 1:1000 to detect the amount of Rb bound to Prohibitin. For disruption of MEK-Raf-1 binding ELISAs, Raf-1 1 microgram/milliliter (μg/mL) was coated on the plate and GST-MEK (20 μg/mL) was incubated +/− the compounds for 30 minutes at room temperature. Mek1 polyclonal antibody was used at 1:1000 to detect the binding of Raf-1 to Mek1. The IC50 concentrations for the Rb:Raf-1 inhibitors were determined by plotting with Origin 7.5 software (Origin, Northampton, Mass.).
A screen was developed to identify small molecule inhibitors of the Rb:Raf-1 interaction. A diversity set, comprising 1981 compounds (National Cancer Institute, Bethesda, Md.) was examined using a glutathione S-transferase-retinoblastoma/glutathione S-transferase-Raf-1 kinase Enzyme-Linked ImmunoSorbent Assay screen (GST-Rb/GST-Raf-1 ELISA).

The subject of assay [4] is Human aortic endothelial cells (HAECs). Put plainly: Matrigel angiogenic tubule formation. Format: cell-based. Particulars: 20 μM. As to the method: Matrigel assays. […] A total of 100 μl of thawed Matrigel was added to 96-well tissue culture plates, followed by incubation at 37° C. for 60 minutes to allow polymerization. […] Capillary tube formation assessed by using a Leica DMIL phase contrast microscope.
An experiment was performed to determine whether angiogenic tubule formation could be inhibited by the disclosed compounds.

Assay [5] concerns the target T2, Rb-E2F1 (Homo sapiens, UniProt P06400+Q01094).
T2 construct: made in house
Put plainly: GST ELISA, Rb-E2F1 binding. Particulars: 20 μM. The source says: In vitro library screening assays. […] Absorbance was read at 490 nanometers (nm).
(In general: ELISA stands for enzyme-linked immunosorbent assay.)

T1 sequence (P04049 1-149 limits assumed): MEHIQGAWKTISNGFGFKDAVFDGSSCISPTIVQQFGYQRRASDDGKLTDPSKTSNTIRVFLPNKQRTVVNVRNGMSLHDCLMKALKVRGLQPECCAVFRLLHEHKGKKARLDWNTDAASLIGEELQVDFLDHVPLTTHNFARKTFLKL
T1 sequence (P06400 whole entry): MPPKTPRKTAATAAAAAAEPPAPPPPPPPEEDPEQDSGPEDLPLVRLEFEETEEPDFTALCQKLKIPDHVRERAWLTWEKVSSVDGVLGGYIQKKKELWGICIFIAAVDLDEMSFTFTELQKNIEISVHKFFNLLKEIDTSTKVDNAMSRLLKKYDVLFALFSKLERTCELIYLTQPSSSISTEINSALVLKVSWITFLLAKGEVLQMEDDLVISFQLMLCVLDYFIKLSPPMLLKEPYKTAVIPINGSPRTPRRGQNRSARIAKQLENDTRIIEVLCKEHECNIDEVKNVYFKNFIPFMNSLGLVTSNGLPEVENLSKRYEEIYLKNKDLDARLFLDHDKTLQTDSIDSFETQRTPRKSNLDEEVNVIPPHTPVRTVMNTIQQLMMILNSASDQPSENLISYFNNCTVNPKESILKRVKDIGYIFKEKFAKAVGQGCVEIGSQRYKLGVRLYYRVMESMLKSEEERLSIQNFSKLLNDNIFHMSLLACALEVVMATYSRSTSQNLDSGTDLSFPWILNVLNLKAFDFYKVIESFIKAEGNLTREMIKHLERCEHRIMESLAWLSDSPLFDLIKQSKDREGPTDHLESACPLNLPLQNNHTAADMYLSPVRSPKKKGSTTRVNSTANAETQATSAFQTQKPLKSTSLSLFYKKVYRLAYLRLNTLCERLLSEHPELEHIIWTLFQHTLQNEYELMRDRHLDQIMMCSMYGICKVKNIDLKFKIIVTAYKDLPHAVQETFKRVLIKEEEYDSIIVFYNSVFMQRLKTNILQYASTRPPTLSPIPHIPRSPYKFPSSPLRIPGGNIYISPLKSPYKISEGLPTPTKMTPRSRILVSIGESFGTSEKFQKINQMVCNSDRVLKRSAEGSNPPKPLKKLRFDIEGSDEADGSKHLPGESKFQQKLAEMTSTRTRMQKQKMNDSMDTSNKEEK
Sequence of binding of Raf-1 to GST Rb beads (P06400 whole entry): as above
Sequence of binding of Raf-1 to GST Rb beads (P04049 whole entry): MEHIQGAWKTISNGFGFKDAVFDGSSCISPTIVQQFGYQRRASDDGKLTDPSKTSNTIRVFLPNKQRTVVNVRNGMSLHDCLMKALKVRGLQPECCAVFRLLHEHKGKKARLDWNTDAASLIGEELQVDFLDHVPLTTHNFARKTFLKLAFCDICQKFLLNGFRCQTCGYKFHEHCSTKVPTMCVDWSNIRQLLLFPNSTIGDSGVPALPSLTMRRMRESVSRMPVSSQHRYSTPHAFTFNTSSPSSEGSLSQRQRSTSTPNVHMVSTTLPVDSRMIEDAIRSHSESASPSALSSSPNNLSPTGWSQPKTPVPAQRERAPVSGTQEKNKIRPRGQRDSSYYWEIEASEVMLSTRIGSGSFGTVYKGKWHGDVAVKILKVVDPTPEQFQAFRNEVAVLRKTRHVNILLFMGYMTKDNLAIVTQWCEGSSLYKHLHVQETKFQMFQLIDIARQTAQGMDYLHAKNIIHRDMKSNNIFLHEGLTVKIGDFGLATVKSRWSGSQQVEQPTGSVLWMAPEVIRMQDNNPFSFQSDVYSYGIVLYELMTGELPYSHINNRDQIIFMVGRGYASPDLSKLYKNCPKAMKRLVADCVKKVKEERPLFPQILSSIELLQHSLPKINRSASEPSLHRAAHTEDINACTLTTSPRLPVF
Sequence of binding of Raf-1 to Rb in U937 cells (P06400 whole entry): as the sequence (P06400 whole entry) above
Sequence of binding of Raf-1 to Rb in U937 cells (P04049 whole entry): as the sequence (P04049 whole entry) above
T2 sequence (P06400 whole entry): as the sequence (P06400 whole entry) above
T2 sequence (Q01094 whole entry): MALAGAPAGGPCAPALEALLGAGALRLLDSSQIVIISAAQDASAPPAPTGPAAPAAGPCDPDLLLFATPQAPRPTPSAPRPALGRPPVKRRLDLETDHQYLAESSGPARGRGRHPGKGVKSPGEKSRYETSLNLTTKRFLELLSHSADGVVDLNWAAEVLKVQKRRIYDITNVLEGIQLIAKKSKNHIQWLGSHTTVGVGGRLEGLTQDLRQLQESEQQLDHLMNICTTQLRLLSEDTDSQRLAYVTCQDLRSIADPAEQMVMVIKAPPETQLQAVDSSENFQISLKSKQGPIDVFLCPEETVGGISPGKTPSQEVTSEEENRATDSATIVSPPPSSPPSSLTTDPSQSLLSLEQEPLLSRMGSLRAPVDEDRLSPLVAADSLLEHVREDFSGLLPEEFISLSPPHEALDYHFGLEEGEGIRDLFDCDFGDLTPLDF

`N=C(N)SCc1ccc(Cl)cc1Cl` [(1), 2,4-dichlorobenzyl carbamimidothioate]: the “binding of Raf-1 to Rb in intact cells” value in assay [1] is given as “inhibited the binding of Raf-1 to Rb significantly”. Moreover, the “binding of Raf-1 to GST Rb beads” value in assay [2] was “inhibited the binding of GST Rb beads to endogenous Raf-1”. In addition, in assay [3], the IC50 is 81 ± 4 nM and the inhibition at 20 µM came to 100%. For the same compound, in assay [4], the “angiogenic tubule formation in matrigel” value was “inhibit angiogenic tubule formation; also recorded: significantly inhibited the angiogenic tubule formation”.
Consider `N=C(N)SCc1ccc(Cl)c2ccccc12` [(2), (4-chloronaphthalen-1-yl)methyl carbamimidothioate], for which the “inhibition of Rb-E2F1 binding / selectivity in words” value in assay [5] was “selective for inhibiting Rb:Raf-1 and not Rb-E2F1 binding”. The “binding of Raf-1 to Rb in intact cells” value in assay [1] is on record as “inhibited the binding of Raf-1 to Rb significantly”. Further, in assay [2], the “binding of Raf-1 to GST Rb beads” value is “inhibited the binding of GST Rb beads to endogenous Raf-1”. In assay [3], the IC50 stood at 283 ± 46 nM and the inhibition at 20 µM was determined as 95%. Further, the “angiogenic tubule formation in matrigel” value in assay [4] is “inhibit angiogenic tubule formation; also recorded: significantly inhibited the angiogenic tubule formation”.
